Here are results for 2 molecules from PMC10828244, “Covalently Binding Adenosine A3 Receptor Agonist ICBM Irreversibly Reduces Voltage-Gated Ca^2+ Currents in Dorsal Root Ganglion Neurons” (Purinergic Signalling, 2023).

For assay [1], the target named is T1, adenosine A3 receptor (A3AR) (Rattus norvegicus, UniProt P28647).
T1 construct: gene Adora3; native receptor in isolated rat DRG neurons
T1 sequence (P28647 1-320): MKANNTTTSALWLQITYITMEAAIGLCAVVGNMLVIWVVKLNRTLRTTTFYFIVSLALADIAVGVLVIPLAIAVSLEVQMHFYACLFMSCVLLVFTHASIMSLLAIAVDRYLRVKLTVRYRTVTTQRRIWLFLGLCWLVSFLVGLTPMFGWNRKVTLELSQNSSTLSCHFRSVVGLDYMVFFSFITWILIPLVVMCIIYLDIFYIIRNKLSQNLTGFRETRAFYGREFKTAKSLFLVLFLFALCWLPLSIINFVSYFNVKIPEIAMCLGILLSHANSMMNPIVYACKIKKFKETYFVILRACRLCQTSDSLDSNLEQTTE
Nature of the assay: whole-cell patch clamp of Ca2+ currents in rat DRG neurons ([…]); effect occluded by ICBM pre-incubation. The format is cell-based.

Assay [2] has as its target T1, adenosine A3 receptor (A3AR). Nature of the assay: whole-cell patch clamp of Ca2+ currents in rat DRG neurons; washout, MRS1523 block and occlusion of Cl-IB-MECA. The format is cell-based. On the technique in general: In patch-clamp work, channel activity is measured electrically.

Structures are written as SMILES.

Regarding `CNC(=O)[C@H]1O[C@@H](n2cnc3c(NCc4cccc(I)c4)nc(Cl)nc32)[C@H](O)[C@@H]1O` [Cl-IB-MECA, 2-Chloro-N^6-(3-iodobenzyl)-adenosine-5′-N-methyluronamide], the “whole-cell patch clamp of Ca2+ currents in rat DRG neurons (30 nM); effect occlu” value in assay [1] was “the prototypical A3AR agonist, Cl-IB-MECA, significantly decreases ICa (Fig. 2A–B) in these cells”.
`CNC(=O)[C@H]1O[C@@H](n2cnc3c(NCc4cccc(N=C=S)c4)ncnc32)[C@H](O)[C@@H]1O` [ICBM, N^6-(3-Isothiocyanatobenzyl)-5′-N-methylcarboxamidoadenosine]: in assay [2], it took 0.0117 µM to reach a half-maximal effect (EC50).
